Experimental data reported in the supplement of paper PMC11061612.

Assays:
NCI-H2722 (Mesothelioma) = test: Bliss excess, mean over the matrix (fraction); higher = more synergy
Outline: (§1)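 Bliss excess equals the observed combination effect minus the expected value EA + EB − EA·EB, where EA and EB are the effects of each agent alone. Combination Emax is the second-highest inhibition within the matrix. Inhibition was scaled from CellTiter-Glo 2.0 luminescence, with 0 set by vehicle wells and 1 by blank wells, after 72 hours of two-drug dosing of cells plated in 1536-well plates.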

CAL-72 (Osteosarcoma) = test: as above
Outline: as §1

[1] = test system: LS-123 (Colorectal Carcinoma); test: as above
Outline: as §1

[2] = test system: WSU-NHL (B-Cell Non-Hodgkin's Lymphoma); test: as above
Outline: as §1

[3] = test system: HH (T-Cell Non-Hodgkin's Lymphoma); test: combination Emax (second highest fraction inhibited in the dose matrix, 72 h); higher = more inhibition; extreme values may be limits of the assay
Outline: as §1

[4] = test system: SAS (Oral Cavity Carcinoma); test: as above
Outline: as §1

[5] = test system: SNU-449 (Hepatocellular Carcinoma); test: as above
Outline: as §1

[6] = test system: LNZTA3WT4 (Low Grade Glioma); test: as above
Outline: as §1

[7] = test system: YAPC (Pancreatic Carcinoma); test: as above
Outline: as §1

[8] = test system: NCI-H209 (Small Cell Lung Carcinoma); test: as above
Outline: as §1

[9] = test system: LCLC-97TM1 (Non-Small Cell Lung Carcinoma); test: as above
Outline: as §1

[10] = test system: NCI-H524 (Small Cell Lung Carcinoma); test: as above
Outline: as §1

[11] = test system: NCI-H1568 (Lung Adenocarcinoma); test: as above
Outline: as §1

NCI-H2052 (Mesothelioma) = test: as above
Outline: as §1

BPH-1 (Non-Cancerous) = test: as above
Outline: as §1

[12] = test system: L-428 (Hodgkin's Lymphoma); test: as above
Outline: as §1

LOXIMVI (Melanoma) = test: as above
Outline: as §1

[13] = test system: SW1573 (Lung Adenocarcinoma); test: as above
Outline: as §1

[14] = test system: OVCAR-5 (Ovarian Carcinoma); test: as above
Outline: as §1

[15] = test system: Hs-746T (Gastric Carcinoma); test: as above
Outline: as §1

Cc1cc2ncnn2cc1Nc1ncc2c(n1)n(C1CCOCC1)c(=O)n2C [AZD7648] + C[C@@H]1COCCN1C2=NC(=NC(=C2)C3(CC3)[S@](=N)(=O)C)C4=C5C=CNC5=NC=C4 [AZD6738] (first compound max 10 µM, 7x7, partner max 10 µM)
Bliss excess (NCI-H2722 (Mesothelioma)): -0.0163 | Bliss excess (CAL-72 (Osteosarcoma)): 0.0292 | Bliss excess [1]: -0.0021 | Bliss excess [2]: -0.0181 | combination Emax [3]: 0.337 | combination Emax [4]: 0.856 | combination Emax [5]: 0.279 | combination Emax [6]: 0.766 | combination Emax [7]: 0.335 | combination Emax [8]: 0.691 | combination Emax [9]: 0.84 | combination Emax [10]: 0.759 | combination Emax [11]: 0.499 | combination Emax (NCI-H2052 (Mesothelioma)): 0.413 | combination Emax (BPH-1 (Non-Cancerous)): 0.429 | combination Emax [12]: 0.794 | combination Emax (LOXIMVI (Melanoma)): 0.768 | combination Emax [13]: 0.229 | combination Emax [14]: 0.757 | combination Emax [15]: 0.677

C[C@@H](c1ccc2nccn2c1)n1nnc2ncc(-c3cnn(C)c3)nc21 [Savolitinib] + Cc1c2c(nn1C)CSCc1cc(n(C)n1)CSc1cc(c3ccccc3c1)OCCCc1c(C(=O)O)n(C)c3c-2c(Cl)ccc13 [AZD5991] (first compound max 1 µM, 7x7, partner max 1 µM)
Bliss excess (NCI-H2722 (Mesothelioma)): -0.0088 | Bliss excess (CAL-72 (Osteosarcoma)): -0.0077 | Bliss excess [1]: -0.0234 | Bliss excess [2]: -0.0467 | combination Emax [3]: 0.879 | combination Emax [4]: 0.151 | combination Emax [5]: 0.154 | combination Emax [6]: 0.222 | combination Emax [7]: 0.11 | combination Emax [8]: 0.323 | combination Emax [9]: 0.147 | combination Emax [10]: 0.351 | combination Emax [11]: 0.147 | combination Emax (NCI-H2052 (Mesothelioma)): 0.185 | combination Emax (BPH-1 (Non-Cancerous)): 0.199 | combination Emax [12]: 0.0947 | combination Emax (LOXIMVI (Melanoma)): 0.228 | combination Emax [13]: 0.133 | combination Emax [14]: 0.137 | combination Emax [15]: 0.652

Cc1cc2ncnn2cc1Nc1ncc2c(n1)n(C1CCOCC1)c(=O)n2C [AZD7648] + C=CCn1c(=O)c2cnc(Nc3ccc(N4CCN(C)CC4)cc3)nc2n1-c1cccc(C(C)(C)O)n1 [AZD1775] (first compound max 10 µM, partner max 1 µM)
Bliss excess (NCI-H2722 (Mesothelioma)): 0.0033 | Bliss excess (CAL-72 (Osteosarcoma)): -0.0194 | Bliss excess [1]: -0.079 | Bliss excess [2]: 0.0072 | combination Emax [3]: 0.431 | combination Emax [4]: 0.734 | combination Emax [5]: 0.333 | combination Emax [6]: 0.717 | combination Emax [7]: 0.533 | combination Emax [8]: 0.743 | combination Emax [9]: 0.781 | combination Emax [10]: 0.808 | combination Emax [11]: 0.453 | combination Emax (NCI-H2052 (Mesothelioma)): 0.512 | combination Emax (BPH-1 (Non-Cancerous)): 0.53 | combination Emax [12]: 0.884 | combination Emax (LOXIMVI (Melanoma)): 0.668 | combination Emax [13]: 0.328 | combination Emax [14]: 0.412 | combination Emax [15]: 0.652
